Experimental data as given in US20220002723A1, “METHODS FOR THE TREATMENT OF SMALL ROUND CELL TUMORS” (Board of Regents, The University of Texas System, priority 2018, published 2022).

Legend:
[1] = tested on: TC-71 Ewing sarcoma cells; conditions: TC-71 ES cells, lack AR expression
[2] = tested on: JN-DSRCT cell line; conditions: JN-DSRCT cells; at high levels of DHT
[3] = tested on: LNCaP prostate cancer cell line; conditions: LNCaP cells; at high levels of DHT

## C[C@]12CCC(=O)C[C@@H]1CC[C@@H]1[C@@H]2CC[C@]2(C)[C@@H](O)CC[C@@H]12 [DHT, 5a-dihydrotestosterone]
[1]
  proliferation on stimulation with AR agonist: no effect and not
[2]
  proliferation on stimulation with AR agonist: increased proliferation
[3]
  proliferation on stimulation with AR agonist: increased proliferation

## C[C@]12CC[C@H]3[C@@H](CCC4=CC(=O)CC[C@@]43C)[C@@H]1CC[C@@H]2O [testosterone]
[1]
  proliferation on stimulation with AR agonist: no effect
[2]
  proliferation on stimulation with AR agonist: increased proliferation
[3]
  proliferation on stimulation with AR agonist: increased proliferation
